Source: patent publication US20240124424A1, “SOLID FORMS OF (5S)-CYCLOPROPYL-5-[3-[(3S)-4-(3,5-DIFLUOROPHENYL)-3-METHYL-PIPERAZIN-1-YL]-3-OXO-PROPYL]IMIDAZOLIDINE-2,4-DIONE” (Galapagos NV, priority 2020, published 2024)
“And” between values parts separate entries of the source, which are not always exact repeats. Equal entries are not always repeated.

Key:
[1] = Stability study of the solid forms; format: physicochemical; settings: for Stability of solid forms under different conditions: result in words
mdx mice = assay: Duchenne muscular dystrophy mdx model; format: in vivo; parameters: Average force output (grip strength) / Tissue volume / Bone volume: unit not given here; settings: mean, Cpd 1 120 mg/kg p.o. b.i.d., prednisolone 5 mg/kg p.o. qd; for Av. g/g BW (average force output/g of body weight) / Average force output (grip strength): n = 15
Excerpt: The male mdx mice is the most used animal model for pre-clinical Duchenne muscular dystrophy (DMD) research.
Five-week-old mdx mice (Animal Resource Centre; Perth, WA, Australia) were allowed to acclimatise for 1 week to their surroundings, before being randomly allocated to one of four treatment groups or an untreated control group (15 animals per group) as described in the table below. At the start of the study, these groups were matched for mouse body weight.
The untreated control mdx mice were restrained throughout the study. Following 1-week acclimatisation, this group of mice also have baseline measurements of grip strength and body composition taken, which were repeated at ˜10 weeks and ˜15 weeks of age. Furthermore, these mice were weighed on a regular basis and their urine was collected at ˜6, ˜10 and ˜15 weeks of age. […]
Bone structure was evaluated via μCT analysis of cortical and trabecular bone on the femur.

BALB/c (H2^d) mice = assay: Graft versus host (cGvHD) lung model; format: in vivo; settings: 120 mg/kg p.o. b.i.d., statistically significant
Excerpt: In this cGvHD model, fibrosis was induced in BALB/c (H2^d) mice by allogeneic transplantation of bone marrow cells and splenocytes from B10.D2 (H2^d) donor mice (minor HLA mismatch). The recipient mice develop inflammation-driven dermal and pulmonary fibrosis resembling patients with rapidly progressive diffuse cutaneous systemic sclerosis (Zen et al., 2012).
The treatment was provided only after the onset of first clinical symptoms of sclerodermatous cGvHD.
The following groups with each eight mice were used in this study • Syngeneically transplanted, placebo-treated control group: Syngeneic bone marrow and splenocyte transplantation (BALB/c (H2^d)→BALB/c (H2^d)). Application of methyl cellulose 0.5% from day 21 to day 56 post transplantation. • Vehicle-treated fibrosis group: Allogeneic bone marrow and splenocyte transplantation (B10.D2 (H2^d)→BALB/c (H2^d)). Application of methyl cellulose 0.5% from day 21 to day 56 post transplantation • Control group to assess pretreatment levels of fibrosis induced by allogeneic transplantation: Allogeneic bone marrow and splenocyte transplantation (B10.D2 (H2^d)→BALB/c (H2^d)). Sacrifice at day 21, before treatment was initiated in the other groups. • Treatment group: Allogeneic bone marrow and splenocyte transplantation (B10.D2 (H2^d)→BALB/c (H2^d)). Application of a test compound of the invention from day 21 to day 56 post transplantation. • Positive control group: Allogeneic bone marrow and splenocyte transplantation (B10.D2 (H2^d)→BALB/c (H2^d)). Application of 50 mg/kg qd nintedanib from day 21 to day 56 post transplantation.
Animals were sacrificed 2 h post last dose, and samples of skin (3 mm punch biopsies), lung, spleen and blood were collected for histology and gene expression analysis.
The anti-fibrotic effects on skin were analysed by determination of dermal thickness, quantification of lesional collagen and staining for myofibroblasts.
In case of positive effects on skin fibrosis, effects on pulmonary fibrosis were analysed by Ashcroft scoring, hydroxyproline content, and quantification of the collagen covered area using Sirius red staining
Based on individual animal raw data, the means for each group were determined and percent change from disease controls was calculated. Treatment groups were compared to disease controls using a one-way analysis of variance (1-way ANOVA) with a Dunnett's post-hoc analysis for measured (parametric) data or a Kruskal-Wallis test with a Dunn's post-hoc analysis for scored (non-parametric) data.

Balb/c mice = assay: Protein overload nephrectomy model; format: in vivo; settings: day 14, individual mice, Cpd 1 240 mg/kg/day b.i.d. or lisinopril 10 mg/kg/day, oral gavage; for proteinuria / urine creatinine: 24 h urine; for Protein/creatinine: urine ratio
Experimental: This animal model allows to assess the efficacy of the compound of the invention in renal disease, including renal fibrosis.
This study was undertaken in Balb/c mice (Charles River).
Mice underwent a left unilateral nephrectomy via a short flank incision under anaesthesia.
Sham control mice received an incision only . The mice were allowed to recover from surgery for 7 days.
Drug treatment commenced one day prior to initiation of protein overload.
Each mouse received either Cpd 1 240 mg/kg/day b.i.d. (dosed daily at 8h00 and 15h30), or 10 mg/kg/day Lisinopril (one dose Lisinopril plus one dose of vehicle), or vehicle alone (0.5% methyl cellulose containing 2% Tween 80—two doses) by oral gavage.
Sham mice received vehicle alone. Protein overload was initiated by daily intraperitoneal injections of sterile filtered 450 mg/ml BSA solution in saline (Sigma cat A4919: low endotoxin) starting from 2 mg/g body weight on day one and increasing to 15 mg/g on day 7 until day 14 according to schedule below:
Sham mice received equivalent volumes of saline. After the last injection, mice were housed in metabolic cages for 24 h urine collection.
The mice were then anaesthetized before sacrifice. Blood sample was collected. The remaining right kidneys were perfused with PBS (Sigma 806552)+10 mM EDTA (Invitrogen 15575-02—stock 0.5M) after which they were excised and transverse dissected.
All data were expressed as means±SEM. Results were analysed using GraphPad Prism 8. D'Agostino-Pearson omnibus normality tests were performed to assess normality for data sets >8, while a Shapiro-Wilk test was applied to data sets <8. For multiple comparisons, a one-way ANOVA with Tukey's post hoc correction (parametric) or a Kruskal-Wallis test with Dunn's post hoc test (non-parametric data) were used. ELISA standard curves were plotted using a Sigmoidal4PL fit where x was the log of the standard concentration. Relative mRNA expression levels were calculated according to the Livak equation as 2-ΔCt. A confidence interval of 0.95, p≤0.05, was applied for all statistical tests.
The following endpoints were measured: • Urine Protein concentration mg/mL, • Urine protein/mg creatinine (mg/mg) • serum protein concentration (mg/mL), • urine creatinine concentration (mg/dL)(mg/mL) • Serum creatinine concentration (mg/dL) • Serum urea concentration (mg/dL) • Versikine, NITEGE, ARGS dot blots • Immunohistochemistry: ADAMTS5, Collagen I, Collagen IV, fibronectin, CD45, complement C3, F4/80

[2] = PK study in human, tablets of Form I and Form II; format: in vivo; settings: fasted, 300 mg oral
Experimental: Following a single 300 mg oral administration of Cpd 1 under fasted and/or fed conditions to healthy male subjects (18 subjects per group) as 30% or 50% drug load tablets of crystalline form I and crystalline form II, concentrations of Cpd 1 human plasma concentrations were determined using protein precipitation extraction with liquid chromatography with tandem mass spectrometry (LC-MS/MS) detection.
The lower limit of quantification was 1 ng/mL. In each analytical run, duplicate QC samples were analyzed along with the study samples.
Blood samples (2 mL) for determination of Cpd 1 in plasma were collected at various time points into tubes containing lithium heparin and were immediately chilled (ice bath). Within 30 min after blood collection, the plasma was separated in a refrigerated centrifuge at 4° C. for 10 min at circa 1,500 g.
Predose PK samples were collected within 15 min predose then at the following time points: 0.5 h, 1 h, 1.5 h, 2 h, 2.5 h, 3 h, 4 h, 5 h, 6 h, 8 h, 12 h, 16 h, 24 h, 48 h, 72 h. For all PK samples between 0.5 and 16 h, a window of ±5 min was allowed; for 24- to 72-h samples, a window of ±30 min was allowed.
All statistical analyses were performed using SAS® version 9.4 (or higher) (SAS Institute, Cary, NC, USA) and/or Phoenix WinNonLin (version 8 or higher) software.
All relevant data were documented using summary tables, figures, and subject data listings. […]

[3] = storage 25° C./60% RH - 12 months
[4] = storage 40° C./75% RH - 6 months

| Stability of solid forms under different conditions [1] | Stability [1, 3] | Stability [1, 4] | Structure (SMILES) | BV/TV (bone volume fraction) (mdx mice; after treatment) | Bone volume (mdx mice; after treatment) | Av. g/g BW (average force output/g of body weight) (mdx mice; mid treatment (4 weeks)) | Average force output (grip strength) (mdx mice; mid treatment (4 weeks)) | Av. g/g BW (average force output/g of body weight) (mdx mice; post treatment (9 weeks)) | Average force output (grip strength) (mdx mice; post treatment (9 weeks)) | Av. g/g BW (average force output/g of body weight) (mdx mice; pre-treatment) | Average force output (grip strength) (mdx mice; pre-treatment) | proteinuria (Balb/c mice) | urine creatinine (Balb/c mice) | serum creatinine (Balb/c mice) | Protein/creatinine (Balb/c mice) | further results |
| --- | --- | --- | --- | --- | --- | --- | --- | --- | --- | --- | --- | --- | --- | --- | --- | --- |
| stable | 100% | 99.3% | C[C@H]1CN(C(=O)CC[C@@]2(C3CC3)NC(=O)NC2=O)CCN1c1cc(F)cc(F)c1 [Amorphous, (5S)-cyclopropyl-5-[3-[(3S)-4-(3,5-difluorophenyl)-3-methyl-piperazin-1-yl]-3-oxo-propyl]imidazolidine-2,4-dione] |  |  |  |  |  |  |  |  |  |  |  |  |  |
| stable | 100% | 100% | C[C@H]1CN(C(=O)CC[C@@]2(C3CC3)NC(=O)NC2=O)CCN1c1cc(F)cc(F)c1 [Form I, (5S)-cyclopropyl-5-[3-[(3S)-4-(3,5-difluorophenyl)-3-methyl-piperazin-1-yl]-3-oxo-propyl]imidazolidine-2,4-dione] |  |  |  |  |  |  |  |  |  |  |  |  |  |
| stable | 99.3% | 98.7% | C[C@H]1CN(C(=O)CC[C@@]2(C3CC3)NC(=O)NC2=O)CCN1c1cc(F)cc(F)c1 [Form II, (5S)-cyclopropyl-5-[3-[(3S)-4-(3,5-difluorophenyl)-3-methyl-piperazin-1-yl]-3-oxo-propyl]imidazolidine-2,4-dione] |  |  |  |  |  |  |  |  |  |  |  |  | increase in plasma peak exposure (Cmax) compared to polymorphic form I ([2]; 30% load tablet): 34%; increase in plasma peak exposure (Cmax) compared to polymorphic form I ([2]; 50% load tablet): 40% |

The next lines start with the molecule.

| Structure (SMILES) | Stability of solid forms under different conditions [1] | Stability [1, 3] | Stability [1, 4] | BV/TV (bone volume fraction) (mdx mice; after treatment) | Bone volume (mdx mice; after treatment) | Av. g/g BW (average force output/g of body weight) (mdx mice; mid treatment (4 weeks)) | Average force output (grip strength) (mdx mice; mid treatment (4 weeks)) | Av. g/g BW (average force output/g of body weight) (mdx mice; post treatment (9 weeks)) | Average force output (grip strength) (mdx mice; post treatment (9 weeks)) | Av. g/g BW (average force output/g of body weight) (mdx mice; pre-treatment) | Average force output (grip strength) (mdx mice; pre-treatment) | proteinuria (Balb/c mice) | urine creatinine (Balb/c mice) | serum creatinine (Balb/c mice) | Protein/creatinine (Balb/c mice) | further results |
| --- | --- | --- | --- | --- | --- | --- | --- | --- | --- | --- | --- | --- | --- | --- | --- | --- |
| C[C@H]1CN(C(=O)CC[C@@]2(C3CC3)NC(=O)NC2=O)CCN1c1cc(F)cc(F)c1 [Cpd 1, (5S)-cyclopropyl-5-[3-[(3S)-4-(3,5-difluorophenyl)-3-methyl-piperazin-1-yl]-3-oxo-propyl]imidazolidine-2,4-dione] |  |  |  | 36.09% | 0.80 | 3.72 g/g | 91.88 | 3.86 g/g | 88.24 | 2.86 g/g | 61.13 | 75.2 mg/mL and 54.7 mg/mL and 187 mg/mL and 79.4 mg/mL and 145 mg/mL and 72.4 mg/mL and 143.5 mg/mL and 229.6 mg/mL and 163 mg/mL and 44.4 mg/mL | 0.33 mg/mL and 0.34 mg/mL and 0.38 mg/mL and 0.25 mg/mL (2×) and 0.29 mg/mL and 0.26 mg/mL and 0.297 mg/mL and 0.384 mg/mL and 0.28 mg/mL | 0.43 mg/dL and 0.4 mg/dL and 0.47 mg/dL and 0.44 mg/dL and 0.41 mg/dL and 0.46 mg/dL and 0.39 mg/dL and 0.38 mg/dL and 0.3 mg/dL and 0.37 mg/dL | 229 and 160 and 497 and 321 and 581 and 250 and 550 and 774 and 425 and 159 | Tissue volume (mdx mice; after treatment): 2.21; reduction of Hydroxyproline content in skin (BALB/c (H2^d) mice): −8.3%; decrease of Ashcroft score compared to the vehicle group (BALB/c (H2^d) mice; lung): −1,3 fold; decrease of collagen-covered lung area compared to the vehicle group (BALB/c (H2^d) mice; lung): −1,2 fold; reduction of myofibroblast count (BALB/c (H2^d) mice; skin): −35% |
| NCCCC[C@H](N[C@@H](CCc1ccccc1)C(=O)O)C(=O)N1CCC[C@H]1C(=O)O [lisinopril, reference compound] |  |  |  |  |  |  |  |  |  |  |  | 59.1 mg/mL and 128.8 mg/mL and 55.8 mg/mL and 197.6 mg/mL and 71.7 mg/mL and 264.6 mg/mL and 284 mg/mL and 82.1 mg/mL and 80 mg/mL and 79 mg/mL | 0.467 mg/mL and 0.378 mg/mL and 0.32 mg/mL and 0.36 mg/mL and 0.3 mg/mL and 0.34 mg/mL and 0.41 mg/mL and 0.38 mg/mL and 0.22 mg/mL and 0.42 mg/mL | 0.39 mg/dL and 0.41 mg/dL and 0.34 mg/dL and 0.35 mg/dL and 0.25 mg/dL and 0.57 mg/dL (2×) and 0.46 mg/dL and 0.55 mg/dL and 0.54 mg/dL | 127 and 341 and 174 and 552 and 238 and 774 and 700 and 216 and 364 and 188 |  |
| C[C@]12C=CC(=O)C=C1CC[C@@H]1[C@@H]2[C@@H](O)C[C@@]2(C)[C@H]1CC[C@]2(O)C(=O)CO [prednisolone, reference compound] |  |  |  | 29.84% | 0.70 | 3.44 g/g | 84.86 | 2.93 g/g | 78.84 | 2.83 g/g | 60.55 |  |  |  |  |  |
